Reference: PMC9697135 (International Journal of Molecular Sciences, 2022)
Like-named read-outs stand apart in the source and are kept apart here.

Legend:
human nSMase2 = settings: cited from earlier work; for IC50: nSMase2 inhibition
ZIKV = experiment: Antiviral activity, virus yield by plaque assay (ZIKV); assay type: cell-based; settings: Zika virus, 24 h, read-out: EC50 ZIKV
in vitro [1] = settings: African green monkey
WNV = experiment: Antiviral activity, virus yield by plaque assay (WNV); assay type: cell-based; settings: West Nile virus, MOI 1 PFU/cell, virus yield at 24 h post-infection
in vitro [2] = settings: human

COc1cc(O)c(C(=O)O)c(-c2cc(O)c(O)cc2C)c1 [Altenusin]
Ki (human nSMase2; non-competitive inhibitor of human nSMase2): 20 µM

COc1cc(-c2nc(-c3cccs3)c(-c3ccccc3)[nH]2)cc(OC)c1O [DPTIP]
EC50 (ZIKV; HeLa): 1840 nM
EC50 (ZIKV; Vero): 1560 nM
CC50 (in vitro [1]): 54.8 µM
EC50 (WNV; HeLa cells): 2810 nM
EC50 (WNV; Vero cells): 260 nM
CC50 (in vitro [2]): 15.1 µM

COc1cc(-c2nc(-c3cccs3)c(-c3ccccc3)[nH]2)cc(OC)c1OC [compound 8]
nSMase2 inhibitory activity (in words) (human nSMase2; SAR of DPTIP derivatives): completely inactive
IC50 (human nSMase2; SAR of DPTIP derivatives): > 100000 nM

COc1cc(-c2nc(-c3cccs3)c(-c3ccccc3)n2C)cc(OC)c1O [compound 9]
IC50 (human nSMase2; SAR of DPTIP derivatives): 40000 nM

Oc1c(OC2CCCC2)cc(-c2nc(-c3cccs3)c(-c3ccccc3)[nH]2)cc1OC1CCCC1 [compound 10]
IC50 (human nSMase2; SAR of DPTIP derivatives): 120 nM

CC(C)(C)Oc1cc(-c2nc(-c3cccs3)c(-c3ccccc3)[nH]2)cc(OC(C)(C)C)c1O [compound 11]
IC50 (human nSMase2; SAR of DPTIP derivatives): 520 nM
